The record followed here is US10907219B2, “Compositions and methods for controlling cellular function” (STC.UNM, priority 2014, dated 2021).

SMILES strings stand for the structures. Entries after “also recorded” stand apart in the source; their conditions may differ.

A short description of data set [1]: Photo-cleavage (uncaging) of caged ABA (HPLC). The following applies: for formation of 2-trans ABA isomer on irradiation: 365 nm photo-cleavage condition; for photo-cleavage by 365 nm light / photo-cleavage by 405 nm light: 10 μM in DMSO. It counts as physicochemical. As to the method: HPLC analysis: Reversed-phase HPLC was performed on an ACCLAIM 120 (4.6×100 mm) C18 column (Thermo Fisher Scientific, Waltham, Mass.) with an ULTIMATE 3000 pump system, including a Variable Wavelength Detector 3100, Degasser 1210, and Autosampler SPS 3000 (Thermo Fisher Scientific, Waltham, Mass.). A mixture of water and acetonitrile containing 0.1% TFA was used as the eluent. Absorbance at 250 nm was used to monitor the elution of the molecules. The method used an increase in acetonitrile from 5% to 95% over 15 minutes to elute the molecules at a flow rate of 0.7 mL/min. The peaks for the molecules were integrated by using Chromeleon software (Thermo Fisher Scientific, Waltham, Mass.). The molar absorptivity of both free and caged ABA at 250 nm were measured, which was used to calculate the concentration of each species from the intensity of absorbance at 250 nm. The relative concentration of each compound was used to calculate the percent concentration of free ABA relative to the concentration of total ABA species (both caged and uncaged).
Photo-irradiation: Irradiation at 365 nm was performed with an Axio Observer (Carl Zeiss AG, Oberkochen, Germany) microscope with an HBO103 W/2 mercury arc lamp (Carl Zeiss AG, Oberkochen, Germany). Irradiation was performed by using a DAPI filter (Carl Zeiss AG, Oberkochen, Germany), set with peak excitation at 365 nm (power density: 23 mW cm^2) and a spectral width of 50 nm. No objective lens was used for whole-well irradiation, which created an area of illumination that nearly completely covered one well of a 24-well plate. Light was transmitted through the bottom of the well of polystyrene plate. Irradiation at 405 nm was performed by using an adjustable focus violet purple laser pointer (LazerPoint SKU 0733579), with an excitation wavelength of 405 nm and 1000 mW intensity positioned 8 cm above the bottom of either a 96-well or 24-well plate and irradiated through the polystyrene lid. All samples for HPLC analysis were irradiated in DMSO to prevent evaporation of solvent and changes in sample concentration. Irradiation of cell cultures was performed in 24-well plates containing culture medium (500 μL).

The subject of data set [2] is CHO cells transfected with ABA-inducible luciferase constructs. Briefly: ABA-inducible luciferase assay. It counts as cell-based. The following applies: for stability in cell culture: 12 or 24 h, luciferase assay. The protocol:
The cellular stability of ABA-DMNB was explored further using a more sensitive and quantitative luciferase assay system, which employs an inducible luciferase construct (FIG. 21A). CHO cells were transfected with the ABA-inducible luciferase constructs for 24 hours and then 10 μM of ABA-DMNB was added and incubated in dark for 12 or 24 hours. Cells were then harvested and analyzed by using the luciferase assay.
Cell culture and transfection: CHO cells and HEK 293T EGFP reporter cells (provided by Dr. Gerald R. Crabtree) were cultured in Dulbecco's modified Eagle's medium (DMEM; GIBCO, Life Technologies, Carlsbad, Calif.) with 10% FBS (Atlanta Biologicals, Inc., Norcross, Ga.), 1×GlutaMAX (GIBCO, Life Technologies, Carlsbad, Calif.), and 1× penicillin/streptomycin (Pen/Strep; GIBCO, Life Technologies, Carlsbad, Calif.). 15,000-50,000 ells were plated in a 24-well or 8-well plate for 24 hours before transfection. DNA constructs (0.1 μg-0.5 μg) were added to 50× (v/w) Opti-MEM (GIBCO, Life Technologies, Carlsbad, Calif.), and then 3× (v/w) PEI (Polysciences, Inc., Warrington, Pa.) was mixed with the DNA. The mixture was incubated for 20 minutes at room temperature before adding it to cell cultures. The cells were grown for one day after transfection before experiments were performed.
Luciferase assay: Cells from 24-well plates were washed with PBS and lysed with Reporter lysis buffer (100 μL; Promega Corp., Madison, Wis.) by incubation and gentle shaking at room temperature for 10 minutes after a freeze/thaw cycle. Cell lysates were centrifuged at 15,000 rpm in an Eppendorf 5424 Centrifuge with lysate used for the luciferase assay (25 μL). Luciferase assay reagent (100 μL, 5 mg luciferin (Gold Biotechnology, Inc., St. Louis, Mo.) and coenzyme A (7 mg; Sigma-Aldrich, St. Louis, Mo.) in Luciferase Assay Buffer (33 mL, 20 mM tricine, 1.07 mM (MgCO3)4Mg(OH)2.5 H2O, 2.67 mM MgSO4, 0.1 mM EDTA, 33.3 mM dithiothreitol, and 0.53 mM ATP in water) was added to lysates. Luciferase assay reagent was added through the auto-injector of a GLOMAX-Multi Detection System (Promega Corp., Madison, Wis.), and the signal was detected by the instrument with a 1.5 s delay and 0.5 s integration time. All experiments were conducted in triplicate.

Data set [3] has as its system myr-ABI and EGFP-PYL-Tiam1 in CHO cells. Briefly: Light-induced ruffling via Tiam1 membrane localization / Rac1 signaling (fixed cells). Format: cell-based. The following applies: for percentage of cells displaying ruffling: compared with ABA-DMNB without irradiation or no drug. The source says:
Next, we examined the induction of ruffle formation through the activation of the Rac1 signaling pathway in order to determine if the light-activated ABA system can be used to regulate a complex biological process. The GTP exchange factor, Tiam1, when presents at the cell membrane, activates Rac1 to initiate a signaling pathway that leads to cytoskeletal remodeling that forms filopodia and/or lamellipodia. To activate Rac1 signaling and induce membrane ruffling, light and ABA-DMNB were used to control membrane localization of Tiam1 (FIG. 23A). A construct encoding a membrane localized ABI (myr-ABI) and one expressing a constitutively active Tiam1 fused to EGFP and PYL were employed for this purpose (FIG. 23A). Following the transfection of CHO cells with both plasmids for 24 hours, 10 μM of ABA-DMNB was added and the treated cell culture was irradiated with 365 nm light from a fluorescent microscope. Cells were then fixed on slides and analyzed under a fluorescence microscope. […] Some background ruffling when overexpressing constitutively active Tiam1 was observed even when no drug was added.
Slide preparation: Cells were grown on glass coverslips in 24-well plates. The coverslips were washed with phosphate-buffered saline (PBS) and fixed with 4% paraformaldehyde (PFA, 300 μL, prepared in PBS) at room temperature for 20 min. The cells were then washed twice with PBS and incubated with 1×DAPI in the dark at the room temperature for 5 min. After a final wash with PBS, the coverslips were mounted on a glass slide with VECTASHIELD (Vector Laboratories, Inc., Burlingame, Calif.) mounting media and allowed to stand for two hours in the dark before imaging.
Statistical analysis of cell population: Cell were categorized as displaying nuclear export of EGFP when the fluorescent intensity of the nucleus was less than 60% of the intensity of the cytoplasm. […] Cells were counted from three separate experiments, with N>50 for each experiment.

Take `CC1=CC(=O)CC(C)(C)C1(O)/C=C/C(C)=C\C(=O)O` (stereo not drawn) [ABA, abscisic acid, reference compound]: the “formation of 2-trans ABA isomer on irradiation” value in data set [1] is on record as “very little 2-trans isomer was produced”. The luciferase expression entry in data set [2] (not irradiated, twelve hours after addition) was “induced luciferase expression”. In addition, in data set [3] (not irradiated), the “percentage of cells displaying ruffling” value is “higher percentage of ruffled cell; also recorded: greater percentage of cells displaying ruffling”.

As for `CCN(CC)c1ccc2c(COC(=O)/C=C(C)\C=C\[C@@]3(O)C(C)=CC(=O)CC3(C)C)cc(=O)oc2c1` [ABA-DEACM], in data set [1], the “photo-cleavage by 365 nm light” value is on record as “cannot be cleaved effectively under 365 nm light; also recorded: cannot be cleaved efficiently by 365 nm light” and the “photo-cleavage by 405 nm light” value was “cleaved rapidly to give ABA within a few minutes”. The “irradiation time to complete cleavage” value in data set [1] (405 nm light) is reported as ≤ 4 min. Also, the “formation of isomerized ABA on irradiation” value in data set [1] (405 nm uncaging) is “isomerized ABA was also produced”. The “stability in cell culture” value in data set [2] (10 μM, dark) is “stable chemically and in cell culture”. The “Rac1 signaling activation/ruffle formation” value in data set [3] (10 μM, 405 nm light irradiation, fixed CHO cells) is “Rac1 signaling activation/ruffle formation in cells”.

Turning to `COc1cc(COC(=O)/C=C(C)\C=C\[C@@]2(O)C(C)=CC(=O)CC2(C)C)c([N+](=O)[O-])cc1OC` [ABA-DMNB], in data set [1] (10 μM and 100 μM, 365 nm UV light), the “irradiation time after which free ABA is regenerated” value was determined as 120 s. Also, in data set [1], the “photo-cleavage by 365 nm light” value is given as “rapidly regenerated from the photo-uncaging of ABA-DMNB within a min”, the “photo-cleavage by 405 nm light” value was “cannot efficiently uncage” and the “formation of 2-trans ABA isomer on irradiation” value is “near equal amount”. Moreover, the “irradiation time to regenerate free ABA” value in data set [1] (100 μM, 365 nm light) is on record as ≤ 2 min. The “stability in cell culture” value in data set [2] (10 μM, dark) is given as “relatively stable under the cell culture condition”. Also, the luciferase expression result in data set [2] (10 μM, dark, 12 hours) is on record as “very little luciferase expression”. In addition, the luciferase expression result in data set [2] (10 μM, dark, 24 hours) is listed as “only a minimal level of luciferase was induced”. Also, the “percentage of cells displaying ruffling” value in data set [3] (10 μM, 365 nm irradiation) is “higher percentage of ruffled cell; also recorded: greater percentage of cells displaying ruffling”.
